From patent US20260355196A1, “INHIBITORS AND DEGRADERS OF PIP4K PROTEIN” (Larkspur Biosciences, Inc., priority 2023, published 2026) come the findings set out here.

The IC50 is the concentration that inhibits the measured activity by half.

Some results are limits rather than exact numbers.

This experiment addresses T1, PIP4K2C (Homo sapiens, UniProt Q8TBX8).
T1 sequence (Q8TBX8 1-421): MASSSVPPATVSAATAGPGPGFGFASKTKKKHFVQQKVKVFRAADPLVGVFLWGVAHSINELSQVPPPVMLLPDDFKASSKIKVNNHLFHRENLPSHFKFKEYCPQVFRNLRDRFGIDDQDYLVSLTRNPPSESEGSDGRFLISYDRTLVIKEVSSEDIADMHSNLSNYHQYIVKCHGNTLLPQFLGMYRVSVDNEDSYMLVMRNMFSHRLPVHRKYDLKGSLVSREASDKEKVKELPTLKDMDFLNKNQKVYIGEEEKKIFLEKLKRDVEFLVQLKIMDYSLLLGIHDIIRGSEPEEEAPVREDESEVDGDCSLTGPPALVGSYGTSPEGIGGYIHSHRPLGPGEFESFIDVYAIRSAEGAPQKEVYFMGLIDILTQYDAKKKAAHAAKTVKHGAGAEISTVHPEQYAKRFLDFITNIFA
Put plainly: Enzyme Binding Assay (KINOMEscan): active site-directed competition binding to an immobilized ligand. Also noted: purchased Eurofins DiscoverX, San Diego, CA 87-0007-1094. As to conditions: 11-point dose response, duplicate, top concentration 5 micromolar; read-out: Pip4k2c Kd: IC50. On the procedure: Example B-1: Enzyme Binding Assays (KINOMEscan)
PIP4K2C binding constants disclosed herein were determined using the proprietary Human PIP4K2C binding assay (Catalog number 87-0007-1094, Eurofins DiscoverX, San Diego, CA). This assay measures active site-directed competition binding to an immobilized ligand (see https://doi.org/10.1038/nbt1068, herein incorporated by reference in its entirety). Experiments were conducted using an 11-point dose response curve, in duplicate, with a top starting concentration of 5 micromolar; the Levenberg-Marquardt algorithm was used to fit a Hill equation to dose-response data to calculate IC50 values (see Table 5).
As to `NC(=O)[C@@H]1CCC[C@H](Nc2ncc(F)c(-c3cccc(N4CCOCC4=O)n3)n2)C1` (relative stereo) [Compound 627, cis-3-((5-fluoro-4-(6-(3-oxomorpholino)pyridin-2-yl)pyrimidin-2-yl)amino)cyclohexane-1-carboxamide], the concentration for half-maximal inhibition (IC50) was below 500 nM. Take `NC(=O)[C@@H]1CCC[C@H](Nc2ncc(F)c(-c3ccnc(N4CCOCC4=O)c3)n2)C1` (relative stereo) [Compound 629, cis-3-((5-fluoro-4-(2-(3-oxomorpholino)pyridin-4-yl)pyrimidin-2-yl)amino)cyclohexane-1-carboxamide]: the half-maximal inhibitory concentration (IC50) is below 500 nM. Take `NC(=O)C1CCC(Nc2ncc(Cl)c(-c3cccc(-c4ccccc4)c3)n2)CC1` (stereo not shown) [Compound 1, 4-((4-([1,1′-biphenyl]-3-yl)-5-chloropyrimidin-2-yl)amino)cyclohexane-1-carboxamide]: the IC50 was in the range of 500 to 1000 nM. On to `O=C(C1CCNCC1)N1CCC(Nc2ncc(Cl)c(-c3cccc(-c4ccccc4)c3)n2)CC1` [Compound 2, (4-((4-([1,1′-biphenyl]-3-yl)-5-chloropyrimidin-2-yl)amino)piperidin-1-yl)(piperidin-4-yl)methanone], for which the concentration for half-maximal inhibition (IC50) is below 500 nM.

Take `CN1CCC(C(=O)N2CCC(Nc3ncc(Cl)c(-c4cccc(-c5ccccc5)c4)n3)CC2)CC1` [Compound 3, (4-((4-([1,1′-biphenyl]-3-yl)-5-chloropyrimidin-2-yl)amino)piperidin-1-yl)(1-methylpiperidin-4-yl)methanone]: the half-maximal inhibitory concentration (IC50) is below 500 nM. `CC(=O)N1CCC(C(=O)N2CCC(Nc3ncc(Cl)c(-c4cccc(-c5ccccc5)c4)n3)CC2)CC1` [Compound 4, 1-(4-(4-((4-([1,1′-biphenyl]-3-yl)-5-chloropyrimidin-2-yl)amino)piperidine-1-carbonyl)piperidin-1-yl)ethan-1-one]: the half-maximal inhibitory concentration (IC50) is below 500 nM.

Take `O=C(CC1CCNCC1)N1CCC(Nc2ncc(Cl)c(-c3cccc(-c4ccccc4)c3)n2)CC1` [Compound 5, 1-(4-((4-([1,1′-biphenyl]-3-yl)-5-chloropyrimidin-2-yl)amino)piperidin-1-yl)-2-(piperidin-4-yl)ethan-1-one]: the IC50 was below 500 nM.

As to `CC(=O)N1CCC(CC(=O)N2CCC(Nc3ncc(Cl)c(-c4cccc(-c5ccccc5)c4)n3)CC2)CC1` [Compound 6, 1-(4-((4-([1,1′-biphenyl]-3-yl)-5-chloropyrimidin-2-yl)amino)piperidin-1-yl)-2-(1-acetylpiperidin-4-yl)ethan-1-one], the IC50 is below 500 nM. With `O=C(CCC1CCNCC1)N1CCC(Nc2ncc(Cl)c(-c3cccc(-c4ccccc4)c3)n2)CC1` [Compound 7, 1-(4-((4-([1,1′-biphenyl]-3-yl)-5-chloropyrimidin-2-yl)amino)piperidin-1-yl)-3-(piperidin-4-yl)propan-1-one], the IC50 was below 500 nM. As to `CC(=O)N1CCC(CCC(=O)N2CCC(Nc3ncc(Cl)c(-c4cccc(-c5ccccc5)c4)n3)CC2)CC1` [Compound 8, 1-(4-((4-([1,1′-biphenyl]-3-yl)-5-chloropyrimidin-2-yl)amino)piperidin-1-yl)-3-(1-acetylpiperidin-4-yl)propan-1-one], the half-maximal inhibitory concentration (IC50) was below 500 nM. Turning to `CN1CCC(CC(=O)N2CCC(Nc3ncc(Cl)c(-c4cccc(-c5ccccc5)c4)n3)CC2)CC1` [Compound 9, 1-(4-((4-([1,1′-biphenyl]-3-yl)-5-chloropyrimidin-2-yl)amino)piperidin-1-yl)-2-(1-methylpiperidin-4-yl)ethan-1-one], the IC50 is below 500 nM. Consider `CN1CCC(CCC(=O)N2CCC(Nc3ncc(Cl)c(-c4cccc(-c5ccccc5)c4)n3)CC2)CC1` [Compound 10, 1-(4-((4-([1,1′-biphenyl]-3-yl)-5-chloropyrimidin-2-yl)amino)piperidin-1-yl)-3-(1-methylpiperidin-4-yl)propan-1-one], for which the IC50 is below 500 nM. `O=C(C1CCC2(CCNCC2)CC1)N1CCC(Nc2ncc(Cl)c(-c3cccc(-c4ccccc4)c3)n2)CC1` [Compound 11, (4-((4-([1,1′-biphenyl]-3-yl)-5-chloropyrimidin-2-yl)amino)piperidin-1-yl)(3-azaspiro[5.5]undecan-9-yl)methanone]: the IC50 is below 500 nM. With `CN1CCC2(CCC(C(=O)N3CCC(Nc4ncc(Cl)c(-c5cccc(-c6ccccc6)c5)n4)CC3)CC2)CC1` [Compound 12, (4-((4-([1,1′-biphenyl]-3-yl)-5-chloropyrimidin-2-yl)amino)piperidin-1-yl)(3-methyl-3-azaspiro[5.5]undecan-9-yl)methanone], the IC50 is below 500 nM. On to `CC(=O)N1CCC2(CCC(C(=O)N3CCC(Nc4ncc(Cl)c(-c5cccc(-c6ccccc6)c5)n4)CC3)CC2)CC1` [Compound 13, 1-(9-(4-((4-([1,1′-biphenyl]-3-yl)-5-chloropyrimidin-2-yl)amino)piperidine-1-carbonyl)-3-azaspiro[5.5]undecan-3-yl)ethan-1-one], for which the IC50 is below 500 nM. Consider `CN1CC(Nc2ncc(Cl)c(-c3cccc(-c4ccccc4)c3)n2)CCC1=O` (stereo not shown) [Compound 14, 5-((4-([1,1′-biphenyl]-3-yl)-5-chloropyrimidin-2-yl)amino)-1-methylpiperidin-2-one], for which the IC50 is below 500 nM. Take `O=C1CC(Nc2ncc(Cl)c(-c3cccc(-c4ccccc4)c3)n2)CCN1` (stereo not shown) [Compound 15, 4-((4-([1,1′-biphenyl]-3-yl)-5-chloropyrimidin-2-yl)amino)piperidin-2-one]: the IC50 was below 500 nM. As to `CN1CCC(Nc2ncc(Cl)c(-c3cccc(-c4ccccc4)c3)n2)CC1=O` (stereo not shown) [Compound 16, 4-((4-([1,1′-biphenyl]-3-yl)-5-chloropyrimidin-2-yl)amino)-1-methylpiperidin-2-one], the IC50 is below 500 nM. For `O=C1CCC(Nc2ncc(Cl)c(-c3cccc(-c4ccccc4)c3)n2)CN1` (stereo not shown) [Compound 17, 5-((4-([1,1′-biphenyl]-3-yl)-5-chloropyrimidin-2-yl)amino)piperidin-2-one] the value was below 500 nM; for `CC(=O)N1CCC[C@H](Nc2ncc(Cl)c(-c3cccc(-c4ccccc4)c3)n2)C1` [Compound 18, (S)-1-(3-((4-([1,1′-biphenyl]-3-yl)-5-chloropyrimidin-2-yl)amino)piperidin-1-yl)ethan-1-one], below 500 nM; for `NC(=O)[C@H]1CC[C@H](Nc2ncc(Cl)c(-c3cccc(-c4ccccc4)c3)n2)CC1` [Compound 19, trans-4-((4-([1,1′-biphenyl]-3-yl)-5-chloropyrimidin-2-yl)amino)cyclohexane-1-carboxamide], below 500 nM. Consider `CC(=O)N1CCC[C@H](Nc2ncc(Cl)c(N3CCC(c4ccccc4)C3)n2)C1` (stereo partly drawn) [Compound 20, 1-((3S)-3-((5-chloro-4-(3-phenylpyrrolidin-1-yl)pyrimidin-2-yl)amino)piperidin-1-yl)ethan-1-one], for which the concentration for half-maximal inhibition (IC50) lay within 1000 to 5000 nM. For the compound `CC(=O)N1CCCC(Nc2ncc(Cl)c(-c3cccc(-c4ccccc4)c3)n2)C1` (stereo not shown) [Compound 21, 1-(3-((4-([1,1′-biphenyl]-3-yl)-5-chloropyrimidin-2-yl)amino)piperidin-1-yl)ethan-1-one], the IC50 is below 500 nM.

For the compound `NC(=O)C1CCCC(Nc2ncc(Cl)c(-c3cccc(-c4ccccc4)c3)n2)C1` (stereo not shown) [Compound 22, 3-((4-([1,1′-biphenyl]-3-yl)-5-chloropyrimidin-2-yl)amino)cyclohexane-1-carboxamide], the IC50 was below 500 nM. For `CC(=O)N1CCC(Nc2ncc(Cl)c(-c3cccc(-c4ccccc4)c3)n2)CC1` [Compound 23, 1-(4-((4-([1,1′-biphenyl]-3-yl)-5-chloropyrimidin-2-yl)amino)piperidin-1-yl)ethan-1-one] the value was below 500 nM; for `CC(=O)N1CCC(Nc2ncc(Cl)c(N3CCCCC3)n2)CC1` [Compound 24, 1-(4-((5-chloro-4-(piperidin-1-yl)pyrimidin-2-yl)amino)piperidin-1-yl)ethan-1-one], 1000 to 5000 nM. Turning to `NC(=O)[C@H]1CC[C@@H](Nc2ncc(Cl)c(-c3ccc(F)cc3)n2)CC1` [Compound 25, cis-4-((5-chloro-4-(4-fluorophenyl)pyrimidin-2-yl)amino)cyclohexane-1-carboxamide], the IC50 is 500 to 1000 nM. Turning to `CC(=O)N1CCCC(Nc2ncc(Cl)c(-c3ccc(F)cc3)n2)C1` (stereo not shown) [Compound 26, 1-(3-((5-chloro-4-(4-fluorophenyl)pyrimidin-2-yl)amino)piperidin-1-yl)ethan-1-one], the IC50 lay within 500 to 1000 nM.

On to `CC(=O)N1CCC(Nc2ncc(Cl)c(-c3ccc(F)cc3)n2)CC1` [Compound 27, 1-(4-((5-chloro-4-(4-fluorophenyl)pyrimidin-2-yl)amino)piperidin-1-yl)ethan-1-one], for which the concentration for half-maximal inhibition (IC50) was 500 to 1000 nM. With `CC(=O)N1CCC[C@H](Nc2ncc(Cl)c(N3CCC(c4ccccn4)C3)n2)C1` (stereo partly drawn) [Compound 29, 1-((3S)-3-((5-chloro-4-(3-(pyridin-2-yl)pyrrolidin-1-yl)pyrimidin-2-yl)amino)piperidin-1-yl)ethan-1-one], the IC50 lay in the range of 1000 to 5000 nM. `CC(=O)N1CCC(Nc2ncc(Cl)c(C3CCN(c4ccccc4)C3)n2)CC1` (stereo not shown) [Compound 30, 1-(4-((5-chloro-4-(1-phenylpyrrolidin-3-yl)pyrimidin-2-yl)amino)piperidin-1-yl)ethan-1-one]: the IC50 was below 500 nM.
